In article PMC6274087, “New Phragmalin-Type Limonoids from Chukrasia tabularis and Their α-Glucosidase Inhibitory Activity” (Molecules, 2016):

Tests used:
α-glucosidase = assay: in vitro α-glucosidase inhibitory assay (4-nitrophenyl-α-D-glucopyranoside substrate, OD at 405 nm); details: for α-glucosidase inhibitory activity (result in words): bioactivity screening; for IC50: read-out: IC50 Value, α-glucosidase inhibitory activity, mean ± SD of triplicate experiments, acarbose as positive control
Procedure: The optimized procedure was as follows: 20 μL of 0.2 U/mL α-glucosidase has been added into 0.1mM potassium phosphate buffer (pH 6.8, 112 μL), then mixed with the testing sample (8 μL). After being preincubated at 37 °C for 15 min, 20 μL of 2.5 mmol/L 4-nitrophenyl-α-D-glucopyranoside was added and then mixed. The reaction was carried out at 37 °C for 15 min and stopped by adding 0.2 M solution of Na2CO3 (80 μL). The optical density values of the reaction mixture were the mean values of three measurements, which were performed at 405 nm wavelength.

| Structure (SMILES) | α-glucosidase inhibitory activity (result in words) (α-glucosidase) | IC50 (α-glucosidase) | melting point |
| --- | --- | --- | --- |
| COC(=O)C(OC(C)=O)C1C2(C)CC34OC5(C)OC6(C(O)C(OC(C)=O)C78CC7(C(OC(C)=O)C(=O)OC8c7ccoc7)C6(O5)C(OC(=O)C(C)C)C3(O)C2OC(C)=O)C14C (stereo not drawn) [Compound 8, chubularisin K] | showed inhibitory activities | 200 ± 57 µM |  |
| COC(=O)C(OC(C)=O)C1C2(C)CC3(O)C(O)(C2OC(C)=O)C2OC4(C(C)C)OC5(C(OC(C)=O)C(OC(C)=O)C67CC6(C(OC(C)=O)C(=O)OC7c6ccoc6)C25O4)C13C (stereo not drawn) [Compound 4, Chukbularisin D] | showed inhibitory activities | 520 ± 39 µM | 190 to 191 °C |
| CC(=O)OC1C2(C)CC34OC5(C)OC6(C7CC(=O)OC(c8ccoc8)C7(C)CCC6(O5)C35OC(=O)CC25)C(OC(=O)C(C)C)C14O (stereo not drawn) [Compound 2, Chukbularisin B] | showed inhibitory activities | 60 ± 8 µM | 185 to 186 °C |
| COC(=O)C(OC(C)=O)C1C2(C)CC3(O)C(OC(=O)C(C)C)(C2OC(C)=O)C2OC4(C)OC5(C(OC(C)=O)C(OC(C)=O)C67CC6(C(OC(C)=O)C(=O)OC7c6ccoc6)C25O4)C13C (stereo not drawn) [Compound 5, Chukbularisin E] | showed inhibitory activities | 1090 ± 40 µM | 208 to 209 °C |
| COC(=O)CC1C2(C)CC3(O)C(O)(C2OC(C)=O)C(OC(=O)C(C)C)C24OC5(C)OC(C(OC(C)=O)C67CC62C(OC(=O)C(C)C)C(=O)OC7c2ccoc2)C4(O5)C13C (stereo not drawn) [Compound 3, Chukbularisin C] | showed inhibitory activities | 40 ± 2 µM | 198 to 199 °C |
| CC(=O)OC(C1=CC(O)OC1=O)C1(C)C(OC(C)=O)C(OC(C)=O)C2(O)C34OC(C)(CC13)OC4C1(OC(C)=O)C(OC(C)=O)C3(C)CC1(O)C21COC(=O)CC31 (stereo not drawn) [Compound 1, Chukbularisin A] |  |  | 201 to 203 °C |
